The values that follow come from US20140357487A1, “PLANTS HAVING INCREASED TOLERANCE TO HERBICIDES” (BASF SE, priority 2011, published 2014).

The structures appear in SMILES notation.

Common to all, as to type: biochemical
Test [1] concerns the target T1, Hordeum HPPD variant L320N (Hordeum vulgare, UniProt O48604, A164G/L320N/R146V/R147D/R148G).
T1 construct: His (N); made in house; host or cells: E. coli BL21 (DE3)
In words: HPPD activity assay, Hordeum HPPD mutant L320N. As to conditions: normalized on Hordeum wild-type HPPD. As for the experimental part:
(§1) HPPD produces homogentisic acid and CO2 from 4-hydroxyphenylpyruvate (4-HPP) and O2. The activity assay for HPPD is based on the analysis of homogentisic acid by reversed phase HPLC.
(§2) The assay mixture can contain 150 mM potassium phosphate buffer pH 7.0, 50 mM L-ascorbic acid, 1 μM FeSO4 and 7 μg of purified enzyme in a total volume of 1 ml.
(§3) Inhibitors are dissolved in DMSO (dimethylsulfoxide) to a concentration of 20 mM or 0.5 mM, respectively. From this stock solution serial five-fold dilutions are prepared in DMSO, which are used in the assay. The respective inhibitor solution accounts for 1% of the assay volume. […] After a preincubation of 30 min the reaction is started by adding 4-HPP to a final concentration of 0.1 mM. The reaction is allowed to proceed for 120 min at room temperature. The reaction is stopped by addition of 100 μl of 4.5 M phosphoric acid.
(§4) Activities are normalized by setting the uninhibited enzyme activity to 100%. IC50 values are calculated using non-linear regression.
(§5) The assay mixture can contain 150 mM potassium phosphate buffer pH 7.0, 50 mM L-ascorbic acid, 100 μM Catalase (Sigma-Aldrich), 1 μM FeSO4 and 0.2 units of purified HPPD enzyme in a total volume of 505 μl. 1 unit is defined as the amount of enzyme that is required to produce 1 nmol of HGA per minute at 20° C.
(§6) Inhibitors are dissolved in DMSO (dimethylsulfoxide) to a concentration of 0.5 mM. From this stock solution serial five-fold dilutions are prepared in DMSO, which are used in the assay. The respective inhibitor solution accounts for 1% of the assay volume. […] Activities are normalized by setting the uninhibited enzyme activity to 100%. IC50 values are calculated using non-linear regression.
(§7) Purified, mutant HPPD enzymes are obtained by the methods described above. Dose response and kinetic measurements are carried out using the described HPPD activity assay. Apparent michaelis constants (Km) and maximal reaction velocities (Vmax) are calculated by non-linear regression with the software GraphPad Prism 5 (GraphPad Software, La Jolla, USA) using a substrate inhibition model.
(§8) Field performance of the optimized HPPD enzyme, which is used as a herbicide tolerance trait may depend not only on its lack of sensitivity towards HPPD inhibiting herbicides but also on its activity. To assess the potential performance of a herbicide tolerance trait a tolerance index (TI) is calculated using the following formula: […]
(§9) Easy comparison and ranking of each trait is enabled by normalizing tolerance indexes on Arabidopsis or Hordeum wild-type HPPD.

Test [2] has as its target T2, Hordeum HPPD variant G407C (Hordeum vulgare, UniProt O48604, A164G/G407C/R146V/R147D/R148G).
T2 construct: His (N); made in house; host or cells: E. coli BL21 (DE3)
In words: HPPD activity assay, Hordeum HPPD mutant G407C. Conditions: normalized on Hordeum wild-type HPPD. On the procedure: as §1, §2, §3, §4, §5, §6, §7, §8, §9

Test [3] deals with T3, Hordeum HPPD variant L353M, P321R, L320N (Hordeum vulgare, UniProt O48604, L320N/L353M/P321R).
T3 construct: His (N); made in house; host or cells: E. coli BL21 (DE3)
In words: HPPD activity assay, Hordeum HPPD mutant L353M, P321R, L320N. As to conditions: normalized on Hordeum wild-type HPPD. On the procedure:
as §1, §2, §3, §4, §5, §6, §7, §8, §9

For test [4], the target named is T4, Hordeum HPPD variant L353M, P321R, V212I (Hordeum vulgare, UniProt O48604, L353M/P321R/V212I).
T4 construct: His (N); made in house; host or cells: E. coli BL21 (DE3)
In words: HPPD activity assay, Hordeum HPPD mutant L353M, P321R, V212I. As to conditions: normalized on Hordeum wild-type HPPD. On the procedure:
as §1, §2, §3, §4, §5, §6, §7, §8, §9

Test [5] has as its target T5, Hordeum HPPD variant L320H, P321A (Hordeum vulgare, UniProt O48604, L320H/P321A).
T5 construct: His (N); made in house; host or cells: E. coli BL21 (DE3)
Put plainly: HPPD activity assay, Hordeum HPPD mutant L320H, P321A. Conditions: normalized on Hordeum wild-type HPPD. As for the experimental part:
as §1, §2, §3, §4, §5, §6, §7, §8, §9

Test [6] has as its target T6, Hordeum HPPD variant L320Q (Hordeum vulgare, UniProt O48604, A164G/L320Q/R146V/R147D/R148G).
T6 construct: His (N); made in house; host or cells: E. coli BL21 (DE3)
Put plainly: HPPD activity assay, Hordeum HPPD mutant L320Q. Conditions: normalized on Hordeum wild-type HPPD. On the procedure:
as §1, §2, §3, §4, §5, §6, §7, §8, §9

Test [7] has as its target T7, Arabidopsis HPPD variant M335H, P336A, E363Q (Arabidopsis thaliana, UniProt P93836, E363Q/M335H/P336A).
T7 construct: PCR-based site directed mutagenesis of pEXP5-NT/TOPO®-AtHPPD is done; His6 (N); made in house; host or cells: E. coli BL21 (DE3)
Put plainly: HPPD activity assay, Arabidopsis HPPD mutant M335H, P336A, E363Q. As to conditions: normalized on Arabidopsis wild-type HPPD. As for the experimental part:
as §1, §2, §3, §4, §5
Inhibitors are dissolved in DMSO (dimethylsulfoxide) to a concentration of 0.5 mM. […] IC50 values are calculated using non-linear regression. […]
Purified, mutant HPPD enzymes are obtained by the methods described above. […] Apparent michaelis constants (Km) and maximal reaction velocities (Vmax) are calculated by non-linear regression with the software GraphPad Prism 5 (GraphPad Software, La Jolla, USA) using a substrate inhibition model.
as §8

The target in test [8] is T8, Hordeum HPPD variant L353M, P321R, V212I, L334E (Hordeum vulgare, UniProt O48604, L334E/L353M/P321R/V212I).
T8 construct: His (N); made in house; host or cells: E. coli BL21 (DE3)
Put plainly: HPPD activity assay, Hordeum HPPD mutant L353M, P321R, V212I, L334E. Conditions: normalized on Hordeum wild-type HPPD. On the procedure:
as §1, §2, §3, §4, §5, §6, §7, §8, §9

The target of a further test is T9, Hordeum HPPD (SEQ ID: 2) (Hordeum vulgare, UniProt O48604, A164G/R146V/R147D/R148G).
T9 construct: His (N); made in house; host or cells: E. coli BL21 (DE3)
Put plainly: HPPD activity assay, Hordeum wild-type HPPD. Conditions: Hordeum HPPD Wildtype; normalized on Hordeum wild-type HPPD. As for the experimental part: as §1, §2, §3, §4, §5, §6
(§10) Using methods which are described in the above examples or well known in the art, purified, recombinant wildtype HPPD enzymes are characterized with respect to their kinetic properties and sensitivity towards HPPD inhibiting herbicides. Apparent michaelis constants (Km) and maximal reaction velocities (Vmax) are calculated by non-linear regression with the software GraphPad Prism 5 (GraphPad Software, La Jolla, USA) using a substrate inhibition model.
(§11) Field performance of the HPPD enzyme, which is used as a herbicide tolerance trait, may depend not only on its lack of sensitivity towards HPPD inhibiting herbicides but also on its activity. To assess the potential performance of a herbicide tolerance trait a tolerance index (TI) is calculated using the following formula: […]

Test [9] deals with T10, Hordeum HPPD variant V212L (Hordeum vulgare, UniProt O48604, A164G/R146V/R147D/R148G/V212L).
T10 construct: His (N); made in house; host or cells: E. coli BL21 (DE3)
In words: HPPD activity assay, Hordeum HPPD mutant V212L. Conditions: normalized on Hordeum wild-type HPPD. As for the experimental part:
as §1, §2, §3, §4, §5, §6, §7, §8, §9

For test [10], the target named is T11, Arabidopsis HPPD (SEQ ID: 53) (Arabidopsis thaliana, UniProt P93836).
T11 construct: His6 (N); made in house; host or cells: E. coli BL21 (DE3)
T11 sequence (P93836 1-445): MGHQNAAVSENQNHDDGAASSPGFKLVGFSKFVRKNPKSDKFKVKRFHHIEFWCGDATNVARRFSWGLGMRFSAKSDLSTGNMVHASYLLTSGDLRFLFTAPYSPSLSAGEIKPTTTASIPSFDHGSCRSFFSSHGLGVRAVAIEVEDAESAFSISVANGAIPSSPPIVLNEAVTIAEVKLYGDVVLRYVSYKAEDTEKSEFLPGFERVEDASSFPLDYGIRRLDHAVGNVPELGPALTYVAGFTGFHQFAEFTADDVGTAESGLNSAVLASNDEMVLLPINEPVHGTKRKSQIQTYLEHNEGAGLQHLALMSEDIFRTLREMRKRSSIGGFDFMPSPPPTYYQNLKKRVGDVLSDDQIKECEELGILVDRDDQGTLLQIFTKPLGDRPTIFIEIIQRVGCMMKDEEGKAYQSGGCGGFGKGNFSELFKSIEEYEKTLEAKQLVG
Put plainly: HPPD activity assay, Arabidopsis wild-type HPPD. Conditions: Arabidopsis HPPD Wildtype; normalized on Arabidopsis wild-type HPPD; Table 15. More on the design: key to Normalized tolerance index TI: tolerance index relative to Arabidopsis wild-type HPPD (= 1). As for the experimental part:
as §1, §2, §3, §4, §5, §6, §10, §11
Easy comparison and ranking of each trait is enabled by normalizing tolerance indexes on Arabidopsis wild-type HPPD.

Test [11] has as its target T12, Hordeum HPPD variant L334E (Hordeum vulgare, UniProt O48604, A164G/L334E/R146V/R147D/R148G).
T12 construct: His (N); made in house; host or cells: E. coli BL21 (DE3)
In words: HPPD activity assay, Hordeum HPPD mutant L334E. Conditions: normalized on Hordeum wild-type HPPD. As for the experimental part:
as §1, §2, §3, §4, §5, §6, §7, §8, §9

T9 sequence (O48604 whole entry R146V/R147D/R148G/A164G): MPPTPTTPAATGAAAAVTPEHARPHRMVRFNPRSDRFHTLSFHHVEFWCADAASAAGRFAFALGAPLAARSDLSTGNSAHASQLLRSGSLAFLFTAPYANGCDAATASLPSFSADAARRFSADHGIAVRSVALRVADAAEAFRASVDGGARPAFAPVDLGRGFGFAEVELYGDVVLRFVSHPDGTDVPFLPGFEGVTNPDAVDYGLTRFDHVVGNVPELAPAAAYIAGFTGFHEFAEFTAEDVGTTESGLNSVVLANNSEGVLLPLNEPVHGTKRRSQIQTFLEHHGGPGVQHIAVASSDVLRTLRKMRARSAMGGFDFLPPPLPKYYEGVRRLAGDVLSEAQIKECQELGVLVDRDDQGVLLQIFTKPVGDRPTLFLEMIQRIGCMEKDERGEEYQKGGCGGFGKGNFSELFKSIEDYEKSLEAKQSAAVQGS
T4 sequence (O48604 whole entry R146V/R147D/R148G/A164G/V212I/P321R/L353M): as the sequence (O48604 whole entry R146V/R147D/R148G/A164G) above, with V212I, P321R, L353M counted along it
T1 sequence (O48604 whole entry R146V/R147D/R148G/A164G/L320N): as the sequence (O48604 whole entry R146V/R147D/R148G/A164G) above, with L320N counted along it
T3 sequence (O48604 whole entry R146V/R147D/R148G/A164G/L320N/P321R/L353M): as the sequence (O48604 whole entry R146V/R147D/R148G/A164G) above, with L320N, P321R, L353M counted along it
T8 sequence (O48604 whole entry R146V/R147D/R148G/A164G/V212I/P321R/L334E/L353M): as the sequence (O48604 whole entry R146V/R147D/R148G/A164G) above, with V212I, P321R, L334E, L353M counted along it
T6 sequence (O48604 whole entry R146V/R147D/R148G/A164G/L320Q): as the sequence (O48604 whole entry R146V/R147D/R148G/A164G) above, with L320Q counted along it
T10 sequence (O48604 whole entry R146V/R147D/R148G/A164G/V212L): as the sequence (O48604 whole entry R146V/R147D/R148G/A164G) above, with V212L counted along it
T2 sequence (O48604 whole entry R146V/R147D/R148G/A164G/G407C): as the sequence (O48604 whole entry R146V/R147D/R148G/A164G) above, with G407C counted along it
T7 sequence (P93836 whole entry M335H/P336A/E363Q): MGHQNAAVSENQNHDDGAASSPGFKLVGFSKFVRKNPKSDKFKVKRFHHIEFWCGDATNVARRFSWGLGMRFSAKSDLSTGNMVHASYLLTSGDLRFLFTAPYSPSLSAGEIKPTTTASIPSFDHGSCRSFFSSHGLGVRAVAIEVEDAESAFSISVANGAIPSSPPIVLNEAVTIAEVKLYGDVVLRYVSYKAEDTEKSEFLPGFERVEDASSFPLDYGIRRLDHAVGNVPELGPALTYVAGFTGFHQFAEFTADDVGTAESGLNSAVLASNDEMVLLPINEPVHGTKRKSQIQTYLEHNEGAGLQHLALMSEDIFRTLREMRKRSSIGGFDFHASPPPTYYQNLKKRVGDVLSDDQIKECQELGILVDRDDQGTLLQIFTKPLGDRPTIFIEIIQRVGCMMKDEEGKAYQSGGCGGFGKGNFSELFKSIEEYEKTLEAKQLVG
T12 sequence (O48604 whole entry R146V/R147D/R148G/A164G/L334E): as the sequence (O48604 whole entry R146V/R147D/R148G/A164G) above, with L334E counted along it
T5 sequence (O48604 whole entry R146V/R147D/R148G/A164G/L320H/P321A): as the sequence (O48604 whole entry R146V/R147D/R148G/A164G) above, with L320H, P321A counted along it

With `CC1(C)c2cccnc2C(O)=C(c2ccc(Br)cc2C(F)(F)F)S1(=O)=O` [Inhibitor 5, 7-[4-bromo-2-(trifluoromethyl)phenyl]-5,5-dimethyl-6,6-dioxo-thiopyrano[4,3-b]pyridin-8-ol], the “Normalized tolerance index TI” value in test [1] was 2.4; in [2] it was 4.3; in test [3] it was 3.2; in test [4], 3.3; in test [5] it was 6.6; in [6], 2.9. Also, the “Normalized tolerance index TI” value was 0.2 in [7]; 3.4 in test [8]; 1 at Hordeum HPPD (SEQ ID: 2); 1.1 in [9]; 1 in test [10]; 2.1 in [11].
